Test results from publication PMC9099682 (2022).

Tests used:
[1] = tested on: Pu22 (DNA, G4) TGAGGGTGGGTAGGGTGGGTAA; assay: CD spectroscopy; settings: K+ 4.5 mM, Na+ (137 mM NaCl, 10 mM Na2HPO4); PBS pH 7.4, 40 °C; 125 µM tPD, 2.5 µM DNA; CD band increase at 263 nm
[2] = tested on: Pu22 (DNA, G4) TGAGGGTGGGTAGGGTGGGTAA; assay: CD melting at 265 nm; settings: K+ 4.5 mM, Na+ (137 mM NaCl, 10 mM Na2HPO4); PBS pH 7.4; 125 µM tPD, 2.5 µM DNA (50 equiv.); Tm 62 to 64 °C

OC[C@H]1O[C@@H](Oc2cc(O)cc(/C=C/c3ccc(O)cc3)c2)[C@H](O)[C@@H](O)[C@@H]1O
binding [1]: yes
ΔTm [2]: +2 °C
